Read-outs that look alike come from different tables or passages of the source.
Legend:
dopamine D-2 receptors = target: T1, dopamine D-2 receptors (Rattus norvegicus, UniProt P61169); assay: inhibition of 3H-spiperone binding to dopamine D-2 receptors in rat corpus striatum in vitro
T1 construct: striatal tissue is dissected and weighed; from tissue; host or cells: corpus striatum membranes of male Wistar rats
Protocol: INHIBITION OF ^3 H-SPIPERONE BINDING TO DOPAMINE D-2 RECEPTORS IN RAT CORPUS STRIATUM IN VITRO
By this method the inhibition by drugs of the binding of ^3 H-spiperone (0.5 nM) to dopamine D-2 receptors in membranes from rat corpus striatum is determined in vitro. Method and results in Hyttel and Larsen, J. Neurochem, 44, 1615-1622, 1985).
Male Wistar (Mol:Wistar) rats (125-250 g) are sacrificed and striatal tissue is dissected and weighed. The tissue is homogenized (Ultra Turrax, 10 sec.) in 10 ml of ice-cold 50 mM K-phosphate buffer pH 7.4 (at 25° C.). The homogenate is centrifuged twice at 20,000 g for 10 min. at 4° C. with rehomogenization of the pellet in 10 ml ice-cold buffer. The final pellet is homogenized in 1300 vol (w/v) ice-cold buffer.
Incubation tubes kept on ice in triplicate receive 100 μl of drug solution in water (or water for total binding) and 4000 μl of tissue suspension (final tissue content corresponds to 3.08 mg original tissue). The binding experimental is initiated by addition of 100 μl of ^3 H-spiperone (final concentration 0.5 nM) and by placing the tubes in a 37° C. water bath. After incubation for 10 min. the samples are filtered under vacuum (0-50 mBar) through Whatman GF/F filters (25 mm). The tubes are rinsed with 5 ml ice-cold buffer which are then poured on the filters. Thereafter, the filters are washed with 2×5 ml of buffer. The filters are placed in counting vials and 4 ml of appropriate scintillation fluid (e.g. Picofluor ™15) are added. After shaking for 1 h and storage 2 hrs in the dark the content of radioactivity is determined by liquid scintillation counting. Specific binding is obtained by subtracting the nonspecific binding in the presence of 10 μM of 6,7-ADTN.
For determination of the inhibition of binding five concentrations of drugs covering 3 decades are used.
England, specific activity 15-25 Ci/mmol.

[1] = target: T2, serotonin S2 (5-HT2) receptors (Rattus norvegicus, UniProt P14842); assay: inhibition of 3H-ketanserin binding to serotonin S2 (5-HT2) receptors in rat cortex in vitro; settings: 3H-ketanserin 0.5 nM, rat cortex membranes, read-out: Binding IC50, 3H Ket.
T2 construct: cortical tissue is dissected and weighed; from tissue; host or cells: cerebral cortex membranes of male Wistar (Mol:Wist) rats
Protocol: Method in Hyttel, Pharmacology & Toxicology, 61, 126-129. 1987.
Male Wistar (Mol:Wist) rats (125-250 g) are sacrifices and cortical tissue is dissected and weighed. The tissue is homogenized (Ultra Turrax, 10 sec.) in 10 ml of ice-cold 50 mM tris buffer pH 7.7 (at 25° C.). The centrifuge glassware used in this step has been rinsed by sonication for 10 min. in ethanol. The homogenate is centrifuged twice at 20,000 g for 10 min. at 4° C. with rehomogenization of the pellet in 10 ml ice-cold buffer. The final pellet is homogenized in 500 vol (w/v) ice-cold buffer.
Incubation tubes kept on ice in triplicate receive 100 μl of drug solution in water (or water for total binding) and 2000 μl of tissue suspension (final tissue content corresponds to 4 mg original tissue). […] After incubation for 30 min. the samples are filtered under vacuum (0-50 mBar) through Whatman GF/F filters (25 mm). The tubes are rinsed with 5 ml ice-cold buffer which are then poured on the filters. Thereafter, the filters are washed with 2×5 ml of buffer. The filters are placed in counting vials and 4 ml of appropriate scintillation fluid (e.g., Picofluor™15) are added. After shaking for 1 h and storage 2 hrs in the dark the content of radioactivity is determined by liquid scintillation counting. Specific binding is obtained by subtracting the nonspecific binding in the presence of 1 μM mianserin. For determination of the inhibition of binding five concentrations of drugs covering 3 decades are used.
The IC50 value is determined as the concentration at which the binding is 50% of the total binding in control samples minus the nonspecific binding in the presence of 1 μM mianserin.

[2] = 3H-spiperone 0.5 nM, rat corpus striatum membranes, in vitro, read-out: Binding IC50, 3H Spi.

T1 sequence (P61169 whole entry): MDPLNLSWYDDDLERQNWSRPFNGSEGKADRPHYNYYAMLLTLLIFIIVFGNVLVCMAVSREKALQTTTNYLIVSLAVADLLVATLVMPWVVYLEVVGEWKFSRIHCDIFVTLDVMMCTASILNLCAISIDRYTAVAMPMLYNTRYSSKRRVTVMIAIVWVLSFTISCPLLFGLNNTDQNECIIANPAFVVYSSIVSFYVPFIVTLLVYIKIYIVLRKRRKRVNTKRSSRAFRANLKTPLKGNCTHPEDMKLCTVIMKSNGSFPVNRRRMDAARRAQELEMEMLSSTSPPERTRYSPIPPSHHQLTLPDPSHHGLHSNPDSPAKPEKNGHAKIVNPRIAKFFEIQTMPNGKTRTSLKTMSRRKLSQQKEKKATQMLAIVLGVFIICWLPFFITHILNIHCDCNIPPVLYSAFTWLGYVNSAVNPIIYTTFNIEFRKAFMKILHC
T2 sequence (P14842 whole entry): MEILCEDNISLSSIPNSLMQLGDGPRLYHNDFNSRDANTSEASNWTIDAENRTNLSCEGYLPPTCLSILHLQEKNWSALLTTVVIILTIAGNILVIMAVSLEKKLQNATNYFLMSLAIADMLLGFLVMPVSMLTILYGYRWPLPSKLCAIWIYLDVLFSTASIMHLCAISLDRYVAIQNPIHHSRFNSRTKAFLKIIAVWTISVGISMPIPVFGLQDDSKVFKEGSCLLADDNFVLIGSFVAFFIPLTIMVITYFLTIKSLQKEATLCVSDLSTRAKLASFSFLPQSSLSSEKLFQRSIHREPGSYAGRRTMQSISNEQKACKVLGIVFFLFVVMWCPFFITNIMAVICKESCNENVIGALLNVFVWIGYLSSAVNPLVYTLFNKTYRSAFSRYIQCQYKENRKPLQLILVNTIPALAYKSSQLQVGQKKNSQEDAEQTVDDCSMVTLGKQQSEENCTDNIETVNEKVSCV

| SMILES | IC50 (dopamine D-2 receptors) | IC50 [1] | IC50 (dopamine D-2 receptors; [2]) |
| --- | --- | --- | --- |
| Cc1ccc2c(C3=CCN(CCN4CCN(C(C)C)C4=O)CC3)cn(-c3ccc(F)cc3)c2c1 [Compound 2b, 1-(4-fluorophenyl)-6-methyl-3-[1-[2-[3-(2-propyl)-2-imidazolidinon-1-yl]ethyl]-1,2,3,6-tetrahydropyridin-4-yl]-1H-indole] | 67 nM | 1.9 nM |  |
| COc1ccc2c(C3CCN(CCN4CCOC4=O)CC3)cn(-c3ccc(F)cc3)c2c1 [Compound 4j, 1-(4-fluorophenyl)-6-methoxy-3-[1-[2-(2-oxazolidinon-1-yl]ethyl]-4-piperidyl]-1H-indole] |  | 40 nM | 1100 nM |
| CC(C)N1CCN(CCN2CCC(c3cn(-c4ccc(F)cc4)c4cc(S(C)(=O)=O)ccc34)CC2)C1=O [Compound 4k, 1-(4-fluorophenyl)-6-methylsulfonyl-3-[1-[2-[3-(2-propyl)-2-imidazolidinon-1-yl]ethyl]-4-piperidyl]-1H-indole] |  | 9 nM | 600 nM |
| CC(C)N1CCN(CCN2CCC(c3cn(-c4ccc(F)cc4)c4cc(C#N)ccc34)CC2)C1=O [Compound 5i, 6-cyano-1-(4-fluorophenyl)-3-[1-[2-[3-(2-propyl)-2-imidazolidinon-1-yl]ethyl]-4-piperidyl]-1H-indole] |  | 8.6 nM | 1100 nM |
| N#Cc1ccc2c(C3CCN(CCN4CCNC4=O)CC3)cn(-c3ccc(F)cc3)c2c1 [Compound 5j, 6-cyano-1-(4-fluorophenyl)-3-[1-[2-(2-imidazolidinon-1-yl)ethyl]-4-piperidyl]-1H-indole] |  | 13 nM | 1500 nM |
| CC(C)N1CCN(CCN2CCN(c3cn(-c4ccc(F)cc4)c4cc(Cl)ccc34)CC2)C1=O [Compound 6a, 6-chloro-1-(4-fluorophenyl)-3-[4-[2-[3-(2-propyl)-2-imidazolidinon-1-yl]ethyl]-1-piperazinyl]-1H-indole] |  | 2.7 nM | 81 nM |
| CCN(CCN1CCC(c2cn(-c3ccc(F)cc3)c3cc(Cl)ccc23)CC1)C(=O)NC(C)C [Compound 9d, 6-chloro-1-(4-fluorophenyl)-3-[1-[2-[1-ethyl-3-(2-propyl)-1-ureido]-1-ethyl]-4-piperidyl]-1H-indole] |  | 1.9 nM | 150 nM |
| CN(C)C(=O)NCCN1CCC(c2cn(-c3ccc(F)cc3)c3cc(Cl)ccc23)CC1 [Compound 9l, 6-chloro-3-[1-[2-(3,3-dimethyl-1-ureido)-1-ethyl]-4-piperidyl]-1-(4-fluorophenyl)-1H-indole] |  | 1.3 nM |  |
| Fc1ccc(-n2cc(C3CCN(CCN4CCNC4=S)CC3)c3ccc(Cl)cc32)cc1 [Compound 12a, 6-chloro-1-(4-fluorophenyl)-3-[1-[2-(2-imidazolidinthion-1-yl)ethyl]-4-piperidyl]-1H-indole] |  | 6.2 nM |  |
| Cc1ccc2c(C3CCN(CCN4CCN(C(C)C)C4=O)CC3)cn(-c3cccs3)c2c1 [Compound 15b, 6-methyl-3-[1-[2-[3-(2-propyl)-2-imidazolidinon-1-yl]ethyl]-4-piperidyl]-1-(2-thie-nyl)-1H-indole] |  | 6.7 nM | 2500 nM |
| Cc1ccc2c(C3CCN(CCN4CCN(C(C)C)C4=O)CC3)cn(-c3ccoc3)c2c1 [Compound 15d, 1-(3-furanyl)-6-methyl-3-[1-[2-[3-(2-propyl)-2-imidazolidinon-1-yl]ethyl]-4-piperi-dyl]-1H-indole] |  | 9.3 nM | 4500 nM |
| Cc1ccc2c(C3CCN(CCN4CCN(C(C)C)C4=O)CC3)cn(-c3ccncc3)c2c1 [Compound 15e, 6-methyl-3-[1-[2-[3-(2-propyl)-2-imidazolidinon-1-yl]ethyl]-4-piperidyl]-1-(4-pyri-dyl)-1H-indole] |  | 7.6 nM | 3500 nM |
| Cc1ccc2c(C3CCN(CCN4CCN(C(C)C)C4=O)CC3)cn(-c3cccc(C(F)(F)F)c3)c2c1 [Compound 15i, 3-[1-[2-[3-(2-propyl)-2-imidazolidinon-1-yl]ethyl]-4-piperidyl]-6-methyl-1-(3-trifluoromethylphenyl)-1H-indole] |  | 150 nM | 3200 nM |
| CC(C)N1CCN(CCN2CCC(c3cn(-c4ccccc4)c4cc(Cl)ccc34)CC2)C1=O [Compound 15k, 6-chloro-1-phenyl-3-[1-[2-[3-(2-propyl)-2-imidazolidinon-1-yl]ethyl]-4-piperidyl]-1H-indole] |  | 4.5 nM |  |
| O=C1NCCN1CCN1CCC(c2cn(-c3ccccc3)c3cc(Cl)ccc23)CC1 [Compound 15m, 6-chloro-3-[1-[2-[2-imidazolidinon-1-yl]ethyl]-4-piperidyl]-1-phenyl-1H-indole] |  | 4.4 nM | 410 nM |
| CC(C)n1ccn(CCN2CCC(c3cn(-c4ccc(F)cc4)c4cc(Cl)ccc34)CC2)c1=O [Compound 17a, 6-chloro-1-(4-fluorophenyl)-3-[1-[2-[3-(2-propyl)imidazol-2-on-1-yl]ethyl]-4-piperidyl]-1H-indole] |  | 4.6 nM |  |
| O=C1N(CCO)CCN1CCN1CCC(c2cn(-c3ccc(F)cc3)c3cc(Cl)ccc23)CC1 [Compound 18a, 6-chloro-1(4-fluorophenyl)-3-[1-[2-[3-(2-hydroxyethyl)-2-imidazolidinon-1-yl]e-thyl]-4-piperidyl]-1H-indole] |  | 2.5 nM |  |
| CSc1ccc2c(C3CCN(CCN4CCN(C(C)C)C4=O)CC3)cn(-c3ccc(F)cc3)c2c1 [Compound 19a, 1-(4-fluorophenyl)-6-methylthio-3-[1-[2-[3-(2-propyl)-2-imidazolidinon-1-yl]ethyl]-4-piperidyl]-1H-indole] |  | 3.2 nM |  |
| CC(C)N1CCN(CCN2CCC(C3CN(c4ccc(F)cc4)c4cc(Cl)ccc43)CC2)C1=O (centres unmarked) [Compound 21a, 6-chloro-1-(4-fluorophenyl)-3-[1-[2-[3-(2-propyl)-2-imidazolidinon-1-yl]ethyl]-4-piperidyl]-2,3-dihydro-1H-indole] |  | 9.6 nM |  |
| Cc1c(C2=CCN(CCN3CCNC3=O)CC2)c2ccccc2n1-c1ccc(F)cc1 [Compound 24b, 1-(4-fluoropheyl)-3-[1-[2-(2-imidazolidinon-1-yl)ethyl]-1,2,3,6tetrahydropyridin-4-yl]-2-methyl-1H-indole] |  | 1 nM |  |

Reference: patent US5216001A, “Indole derivatives” (H. Lunbeck A/S, priority 1990, dated 1993)
